Reference: EP1561465A2, “Methods of use of fluoroquinolone compounds against bacteria” (LG Life Sciences, Ltd., priority 1999, dated 2001)
Converted amounts (≈) assume the structure as drawn. Read-outs that look alike come from different tables or passages of the source.

Tests used:
Format in all cases: cell-based
[1] = tested on: Streptococcus pneumoniae; assay: MIC by NCCLS reference broth microdilution, 450 respiratory tract pathogens; settings: Streptococcus pneumoniae
[2] = tested on: Gram positive anaerobic and facultative anaerobic pathogens; assay: microbe, parasite or virus in culture
[3] = MIC by agar dilution, Brucella HK agar, 491 anaerobic clinical isolates; settings: clinical isolates of Bacteroides spp., Prevotella bivia and other Prevotella spp.
[4] = tested on: Haemophilus influenzae; assay: MIC by NCCLS reference broth microdilution, 450 respiratory tract pathogens; settings: Haemophilus influenzae; for MIC90: read-out: MIC90
[5] = tested on: Staphylococcus epidermidis; assay: MIC by NCCLS broth microdilution, 1100 Japanese clinical isolates 1997-1998; settings: for MIC50 / MIC90: Staphylococcus epidermidis
[6] = tested on: Citrobacter freundii; assay: as above; settings: Citrobacter freundii (n=39)
[7] = tested on: Staphylococcus aureus; assay: microbe, parasite or virus in culture
[8] = Streptococcus pneumoniae (n = 100)
[9] = erythromycin resistant M phenotype (n = 16)
[10] = erythromycin resistant MLSB phenotype (n = 16)
[11] = penicillin intermediate (n = 16)
[12] = penicillin susceptible (n = 20)
[13] = Haemophilus influenzae (n = 100)
[14] = Staphylococcus epidermidis oxacillin resistant (n=43)
[15] = Staphylococcus epidermidis oxacillin susceptible (n=35)

Q: With `C[C@@H]1CN(c2c(F)c(N)c3c(=O)c(C(=O)O)cn(C4CC4)c3c2F)C[C@H](C)N1` [Sparfloxacin, sparfloxacin] as the compound, how does the MIC [1, 8] read?
A: 0.12 to 1 µg/mL (≈ 0.306 to 2.55 µM)

Q: And the MIC50 [1, 8]?
A: 0.5 µg/mL (≈ 1.27 µM)

Q: What about the MIC90 [1, 8] of the same compound?
A: 0.5 µg/mL (≈ 1.27 µM)

Q: And the MIC [1, 9]?
A: 0.25 µg/mL (≈ 0.637 µM)

Q: And the MIC50 [1, 9]?
A: 0.25 µg/mL (≈ 0.637 µM)

Q: And the MIC90 [1, 9]?
A: 0.25 µg/mL (≈ 0.637 µM)

Q: And the MIC [1, 10]?
A: 0.12 to 0.5 µg/mL (≈ 0.306 to 1.27 µM)

Q: And the MIC50 [1, 10]?
A: 0.25 µg/mL (≈ 0.637 µM)

Q: What about the MIC90 [1, 10] of the same compound?
A: 0.25 µg/mL (≈ 0.637 µM)

Q: And the MIC ([1]; multi-drug resistant (n = 16))?
A: 0.12 to 0.5 µg/mL (≈ 0.306 to 1.27 µM)

Q: And the MIC50 ([1]; multi-drug resistant (n = 16))?
A: 0.5 µg/mL (≈ 1.27 µM)

Q: And the MIC90 ([1]; multi-drug resistant (n = 16))?
A: 0.5 µg/mL (≈ 1.27 µM)

Q: What about the MIC [1, 11] of the same compound?
A: 0.5 to 1 µg/mL (≈ 1.27 to 2.55 µM)

Q: And the MIC50 [1, 11]?
A: 0.5 µg/mL (≈ 1.27 µM)

Q: And the MIC90 [1, 11]?
A: 0.5 µg/mL (≈ 1.27 µM)

Q: And the MIC ([1]; penicillin resistant (n = 18))?
A: 0.25 to 1 µg/mL (≈ 0.637 to 2.55 µM)

Q: What about the MIC50 ([1]; penicillin resistant (n = 18)) of the same compound?
A: 0.5 µg/mL (≈ 1.27 µM)

Q: What about the MIC90 ([1]; penicillin resistant (n = 18)) of the same compound?
A: 1 µg/mL (≈ 2.55 µM)

Q: What about the MIC [1, 12] of the same compound?
A: 0.12 to 0.5 µg/mL (≈ 0.306 to 1.27 µM)

Q: What about the MIC50 [1, 12] of the same compound?
A: 0.25 µg/mL (≈ 0.637 µM)

Q: What about the MIC90 [1, 12] of the same compound?
A: 0.25 µg/mL (≈ 0.637 µM)

Q: What about the MIC ([2]; Bifidobacterium adolescentis, ATCC15703) of the same compound?
A: 0.5 µg/mL (≈ 1.27 µM)

Q: And the MIC ([2]; Bifidobacterium bifidum, JCM1255)?
A: 2 µg/mL (≈ 5.1 µM)

Q: And the MIC ([2]; Bifidobacterium breve, ATCC15700)?
A: 2 µg/mL (≈ 5.1 µM)

Q: What about the MIC ([2]; Bifidobacterium longum, ATCC15707) of the same compound?
A: 2 µg/mL (≈ 5.1 µM)

Q: And the MIC ([2]; Bifidobacterium pseudolongum, ATCC25526)?
A: 2 µg/mL (≈ 5.1 µM)

Q: What about the MIC ([2]; Clostridioides difficile) of the same compound?
A: 8 µg/mL (≈ 20.4 µM)

Q: And the MIC ([2]; Clostridium perfringens, ATCC13124)?
A: 0.125 µg/mL (≈ 0.319 µM)

Q: What about the MIC ([2]; Clostridium septicum, ATCC12464) of the same compound?
A: 0.125 µg/mL (≈ 0.319 µM)

Q: And the MIC ([2]; Cutibacterium acnes, ATCC11828)?
A: 0.25 µg/mL (≈ 0.637 µM)

Q: And the MIC ([2]; Eggerthella lenta, ATCC25559)?
A: 0.5 µg/mL (≈ 1.27 µM)

Q: And the MIC ([2]; Finegoldia magna, ATCC29328)?
A: 0.125 µg/mL (≈ 0.319 µM)

Q: What about the MIC ([2]; Gemella morbillorum, ATCC27824) of the same compound?
A: 0.25 µg/mL (≈ 0.637 µM)

Q: What about the MIC ([2]; Lacticaseibacillus casei, JCM1134) of the same compound?
A: 0.125 µg/mL (≈ 0.319 µM)

Q: What about the MIC ([2]; Lactiplantibacillus plantarum, JCM1149) of the same compound?
A: 8 µg/mL (≈ 20.4 µM)

Q: And the MIC ([2]; Lactobacillus acidophilus, JCM1132)?
A: 32 µg/mL (≈ 81.5 µM)

Q: And the MIC ([2]; Levilactobacillus brevis, JCM1059)?
A: 2 µg/mL (≈ 5.1 µM)

Q: What about the MIC ([2]; Ligilactobacillus salivarius, JCM1231) of the same compound?
A: 0.5 µg/mL (≈ 1.27 µM)

Q: What about the MIC ([2]; Limosilactobacillus reuteri, JCM1112) of the same compound?
A: 2 µg/mL (≈ 5.1 µM)

Q: And the MIC ([2]; Limosilactobacillus reuteri, JCM1173)?
A: 2 µg/mL (≈ 5.1 µM)

Q: And the MIC ([2]; Paraclostridium sordellii, ATCC9714)?
A: 2 µg/mL (≈ 5.1 µM)

Q: And the MIC ([2]; Parvimonas micra)?
A: 0.5 µg/mL (≈ 1.27 µM)

Q: And the MIC ([2]; Peptoniphilus asaccharolyticus)?
A: 0.25 µg/mL (≈ 0.637 µM)

Q: What about the MIC ([2]; Peptoniphilus indolicus) of the same compound?
A: 0.06 µg/mL (≈ 0.153 µM)

Q: And the MIC ([2]; Peptostreptococcus anaerobius, ATCC27337)?
A: 0.5 µg/mL (≈ 1.27 µM)

Q: What about the MIC ([2]; Schaalia odontolytica) of the same compound?
A: 4 µg/mL (≈ 10.2 µM)

Q: And the MIC ([2]; Staphylococcus saccharolyticus, ATCC14953)?
A: 0.25 µg/mL (≈ 0.637 µM)

Q: And the MIC ([2]; Streptococcus constellatus, ATCC27823)?
A: 0.5 µg/mL (≈ 1.27 µM)

Q: And the MIC ([2]; Streptococcus intermedius, ATCC27335)?
A: 0.5 µg/mL (≈ 1.27 µM)

Q: And the MIC ([2]; Thomasclavelia ramosa, ATCC25582)?
A: 4 µg/mL (≈ 10.2 µM)

Q: And the MIC90 [3]?
A: 4 to 32 µg/mL (≈ 10.2 to 81.5 µM)

Q: And the MIC [4, 13]?
A: 0.0075 to 0.25 µg/mL (≈ 0.0191 to 0.637 µM)

Q: What about the MIC50 [4, 13] of the same compound?
A: 0.01 µg/mL (≈ 0.0255 µM)

Q: And the MIC90 [4, 13]?
A: 0.03 µg/mL (≈ 0.0765 µM)

Q: What about the MIC ([4]; β-lactamase negative (n = 80)) of the same compound?
A: 0.0075 to 0.25 µg/mL (≈ 0.0191 to 0.637 µM)

Q: And the MIC50 ([4]; β-lactamase negative (n = 80))?
A: 0.015 µg/mL (≈ 0.0382 µM)

Q: And the MIC90 ([4]; β-lactamase negative (n = 80))?
A: 0.25 µg/mL (≈ 0.637 µM)

Q: What about the MIC ([4]; β-lactamase positive (n = 20)) of the same compound?
A: 0.0075 to 0.12 µg/mL (≈ 0.0191 to 0.306 µM)

Q: What about the MIC50 ([4]; β-lactamase positive (n = 20)) of the same compound?
A: 0.015 µg/mL (≈ 0.0382 µM)

Q: What about the MIC90 ([4]; β-lactamase positive (n = 20)) of the same compound?
A: 0.03 µg/mL (≈ 0.0765 µM)

Q: And the “MIC Range” value [5, 14]?
A: 0.032 to 16 µg/mL

Q: What about the “MIC Range” value [5, 15] of the same compound?
A: 0.032 to 8 µg/mL

Q: What about the MIC50 [5, 14] of the same compound?
A: 4 µg/mL (≈ 10.2 µM)

Q: And the MIC90 [5, 14]?
A: 8 µg/mL (≈ 20.4 µM)

Q: What about the MIC50 [5, 15] of the same compound?
A: 0.063 µg/mL (≈ 0.161 µM)

Q: What about the MIC90 [5, 15] of the same compound?
A: 4 µg/mL (≈ 10.2 µM)

Q: What about the MIC90 [6] of the same compound?
A: 2 µg/mL (≈ 5.1 µM)

Q: And the “MIC Range” value [6]?
A: 0.016 to 4 µg/mL

Q: And the MIC50 ([6]; read-out: MIC50)?
A: 0.25 µg/mL (≈ 0.637 µM)

Q: And the “MIC Range” value ([7]; Methicillin-resistant (38))?
A: 0.063 to 64 µg/mL

Q: What about the “MIC Range” value ([7]; Methicillin-susceptible (9)) of the same compound?
A: 0.063 to 0.5 µg/mL

Q: And the MIC50 ([7]; Staphylococcus aureus, Methicillin-resistant (38))?
A: 2 µg/mL (≈ 5.1 µM)

Q: And the MIC90 ([7]; Staphylococcus aureus, Methicillin-resistant (38), read-out: MIC90)?
A: 64 µg/mL (≈ 163 µM)

Q: And the MIC50 ([7]; Staphylococcus aureus, Methicillin-susceptible (9))?
A: 0.125 µg/mL (≈ 0.319 µM)

Q: What about the MIC ([7]; Staphylococcus aureus, S. aureus KU2240, mutant type Wild (wild strain)) of the same compound?
A: 0.25 µg/mL (≈ 0.637 µM)

Q: And the MIC ([7]; Staphylococcus aureus, S. aureus KU2241, mutant type NorA (efflux-mediated quinolone resistant))?
A: 0.25 µg/mL (≈ 0.637 µM)

Q: And the MIC ([7]; Staphylococcus aureus, S. aureus KU2242, mutant type T (DNA topoisomerase IV))?
A: 0.25 µg/mL (≈ 0.637 µM)

Q: And the MIC ([7]; Staphylococcus aureus, S. aureus KU2243, mutant type G+T (DNA gyrase and topoisomerase IV))?
A: 64 µg/mL (≈ 163 µM)

Q: And the MIC ([7]; Staphylococcus aureus, S. aureus KU2244, mutant type G (DNA gyrase))?
A: 0.25 µg/mL (≈ 0.637 µM)

Q: And the MIC ([7]; Staphylococcus aureus, S. aureus KU2245, mutant type G+T (DNA gyrase and topoisomerase IV))?
A: 64 µg/mL (≈ 163 µM)

Q: What about the MIC ([7]; Staphylococcus aureus, S. aureus KU2246, mutant type T (DNA topoisomerase IV)) of the same compound?
A: 0.25 µg/mL (≈ 0.637 µM)
